From patent US7704924B2, “Library of compounds comprising pyrrolobenzodiazepine moieties” (Spirogen Limited, priority 1998, dated 2010)

Test system: U937 chronic human histiocytic leukemia cells or K562 human chronic myeloid leukemia cells
Test: MTT assay of the 27 member PBD library synthesised on crowns (photolytic cleavage, continuous incubation)
Type: cell-based
Conditions: 4 days, with or without UVA (365 nm, 2 h) not given
Method: The ability of agents to inhibit the growth of U937 chronic human histiocytic leukemia cells or K562 human chronic myeloid leukemia cells in culture was measured using the MTT assay (Mosmann, 1983). This is based on the ability of viable cells to reduce a yellow soluble tetrazolium salt, 3-(4,5-dimethylthiazolyl)-2,5-diphenyltetrazolium bromide (MTT; Sigma Chemical Co.), to an insoluble purple formazan precipitate. Following drug treatment, the cells were transferred to 96-well microtitre plates with 10^4 cells per well and 8 wells per sample. The plates were incubated at 37° C. in a humidified atmosphere containing 5% CO2. Following incubation of the plates for 4 days (to allow control cells to increase in number by 10-fold), 20 μL of a 5 mg/mL solution of MTT in phosphate-buffered saline was added to each well and the plates incubated further for 5 hours. […] The optical density was then read at a wavelength of 550 nm on a Titertek Multiscan ELISA plate reader and the dose-response curve constructed. […]
Following incubation of the plates for 4 days (to allow control cells to increase in number by 10-fold), 20 μL of a 5 mg/mL solution of MTT in phosphate-buffered saline was added to each well and the plates further incubated for 5 hours. […] The optical density was then read at a wavelength of 550 nm on a Titertek Multiscan ELISA plate reader and the dose-response curve constructed.

COc1cc2c(cc1OCc1ccccc1)N=C[C@@H]1CCCN1C2=O [Benzyl DC-81, reference compound]
% Control at 0.3 μM: 47.4%
